Reference: patent US11917993B2, “Antimicrobial compositions” (LANXESS Corporation, priority 2017, dated 2024)

Key:
Assay type in all cases: cell-based
[1] = system: K. aerogenes (ATCC 13048) and P. aeruginosa (ATCC 9027); experiment: Challenge testing in tryptic soy broth at pH 9, time points from ASTM 2574; conditions: pH 9, tryptic soy broth, up to one week
Description: EP testing evaluates results at the 2-day, 7-day, 14-day, and 28-day marks. […] Strains of K. aerogenes (ATCC 13048) and P. aeruginosa (ATCC 9027) were utilized for this testing as they are commonly found in many products, including without limitation cosmetics and coatings. These organisms were challenged in the soy broth using the same methods described in the Challenge Testing Methodology section. The time points were selected from ASTM 2574, which is a method for evaluating antimicrobial efficacy in waterborne emulsion based paints.

[2] = system: A. brasiliensis, C. albicans, E. coli, P. aeruginosa, S. aureus; experiment: Microbe challenge testing (USP 51 / EP) in model skin lotion of Table 1
Description: (§1) One skilled in the art would be able to determine and utilize other industry testing methods useful to evaluate the efficacy of the present inventive compositions.
(§2) EP testing evaluates results at the 2-day, 7-day, 14-day, and 28-day marks.
(§3) For the European Pharmacopeia, a “pass” test for efficacy is a two-log reduction for bacteria after two days, three-log reduction for bacteria after […], two-log reduction for mold and yeast at 14 days and no increase at 28 days.
Skin Lotion Formulation Experimental—An exemplary, model skin lotion having a pH of 6.5 as set forth below in Table 1 was prepared for testing. The invention is not limited to use in this specific lotion but was used to illustrate the advantages of the invention.
Use of 3-phenyl propanol in the skin lotion formulation as set forth in Table 1 above was evaluated according to methods described in the Challenge Testing Methodology section above. In this efficacy screen study reflected in FIGS. 18 and 19, only the time intervals at 2-day and 14-day were measured, as these are critical time points for USP-51 and European Pharmacopeia. In this example, a triblend or tri-component antimicrobial composition was used comprising 3-phenyl propanol added to the model skin lotion containing both sodium benzoate and benzyl alcohol to enhance the antimicrobial activity at pH 6.5, a common pH for skin lotions.
In FIG. 21 and FIG. 22, use of 3-phenyl propanol in the skin lotion set forth in Table 1 above was evaluated according to methods described in the Challenge Testing Methodology section using the microbes identified in Example 1. In this example, 3-phenyl propanol was added to the model skin lotion with sodium benzoate at 0.5 wt. % to enhance the antimicrobial activity at pH 6.5. In these examples, 0.5 wt. % of 3-phenyl propanol in addition to 0.5 wt. % sodium benzoate was required to pass the EP 2 day and 14-day criteria.
In FIG. 23 and FIG. 24, use of 3-phenyl propanol in the skin lotion set forth in Table 1 above was evaluated according to methods described in the Challenge Testing Methodology section above, using the microbes identified in Example 1. In this example, 3-phenyl propanol was added to the model skin lotion with benzyl alcohol at 0.5 wt. % to enhance the antimicrobial activity at pH 8.0. In these examples, 0.5 wt. % of 3-phenyl propanol in addition to 0.5 wt. % benzyl alcohol was required to pass the EP 2 day and 14-day criteria.
Use of sodium benzoate and benzyl alcohol at pH 6.5 in the skin lotion set forth in Table 1 above was evaluated according to methods described in paragraphs the Challenge Testing Methodology section above, using the microbes identified in Example 1. Again, in this case, only 2-day and 14-day time points were measured.

[3] = system: A. brasiliensis, C. albicans, E. coli, P. aeruginosa, S. aureus; experiment: Microbe challenge testing (USP 51 / EP) in tryptic soy broth growth media; conditions: for effectiveness against microbe strains compared to no antimicrobial: 0.5 wt. %; for concentration achieving passing efficacy according to EP criteria / concentration achieving passing efficacy according to USP-51 criteria / efficacy versus bacteria, yeast and mold: tryptic soy broth; for efficacy versus bacteria, yeast and mold: 30 minutes to 28 days
Description: as §1, §2, §3
As such, it is an exceptional test medium and surrogate for evaluating antimicrobial efficacy, particularly for water-based or aqueous applications, although its value is not limited as such.
Product use applications involve a variety of pH conditions. […] In addition, antimicrobial compositions were added in amounts reflecting the wt. % used in an end use product, based on the total weight of all of the components of the end use product.
The efficacy of 3-phenyl propanol in tryptic soy broth growth media at pH 6.5 versus a number of microbes was evaluated according to methods described in the Challenge Testing Methodology section, above.
The efficacy of 3-phenyl propanol in tryptic soy broth growth media at pH 8.0 versus a number of microbes was evaluated according to methods described in the Challenge Testing Methodology section above.

OCc1ccccc1 [benzyl alcohol, reference compound]
antimicrobial effectiveness over time ([1]; 2.5 wt. %): unexpected antimicrobial effectiveness

CC(CO)Cc1ccccc1 (stereo not drawn) [2-methyl-3-phenyl propanol]
antimicrobial effectiveness over time ([1]; 0.5 wt. %): unexpected antimicrobial effectiveness

OCCCc1ccccc1 [3-phenyl propanol]
addition of 3-phenyl propanol meeting the two-day criteria of the European Pharmacopeia ([2]; skin lotion pH 6.5 with 0.25 wt. % sodium benzoate and 0.25 wt. % benzyl alcohol): 0.35 wt. %
effect of small concentrations on performance against E. coli and S. aureus versus control (0 wt. %) ([2]; skin lotion pH 6.5 with 0.25 wt. % sodium benzoate and 0.25 wt. % benzyl alcohol, after 14 days): significantly decreased performance
loading of 3-phenyl propanol achieving the required 14-day efficacy under European Pharmacopeia criteria ([2]; skin lotion pH 6.5 with 0.25 wt. % sodium benzoate and 0.25 wt. % benzyl alcohol, bacteria, mold and yeast): approximately 0.35 wt. %
3-phenyl propanol required to pass the EP 2 day and 14-day criteria ([2]; skin lotion pH 6.5 with 0.5 wt. % sodium benzoate): 0.5 wt. %
3-phenyl propanol required to pass the EP 2 day and 14-day criteria ([2]; skin lotion pH 8.0 with 0.5 wt. % benzyl alcohol): 0.5 wt. %
effectiveness against microbe strains compared to no antimicrobial ([3]; pH 3, tryptic soy broth, up to 28 days): demonstrated the effectiveness
effectiveness against microbe strains compared to no antimicrobial ([3]; pH 10, tryptic soy broth): demonstrated the effectiveness
concentration achieving passing efficacy according to EP criteria ([3]; pH 6.5): 1 wt. %
concentration achieving passing efficacy according to USP-51 criteria ([3]; pH 6.5): 0.5 wt. %
efficacy versus bacteria, yeast and mold ([3]; pH 6.5, various concentrations): efficacious versus bacteria, yeast and mold
concentration achieving passing efficacy according to EP criteria ([3]; pH 8.0): 1 wt. %
concentration achieving passing efficacy according to USP-51 criteria ([3]; pH 8.0): 0.25 wt. %
efficacy versus bacteria, yeast and mold ([3]; pH 8.0, various concentrations): efficacious versus bacteria, yeast and mold
